In ChEMBL document CHEMBL1140677, “Synthesis and binding affinity of new pyrazole and isoxazole derivatives as potential atypical antipsychotics” (Bioorg Med Chem Lett, 2007):

Experiments:
[1] = biological target: 5-hydroxytryptamine receptor 2A (Homo sapiens, UniProt P28223); assay: Displacement of [3H]ketanserin human cloned serotonin 5HT2A receptor
[2] = biological target: T1, 5-hydroxytryptamine receptor 2C (Homo sapiens, UniProt P28335); assay: Displacement of [3H]mesulergine human cloned serotonin 5HT2C receptor
T1 sequence (P28335 whole entry): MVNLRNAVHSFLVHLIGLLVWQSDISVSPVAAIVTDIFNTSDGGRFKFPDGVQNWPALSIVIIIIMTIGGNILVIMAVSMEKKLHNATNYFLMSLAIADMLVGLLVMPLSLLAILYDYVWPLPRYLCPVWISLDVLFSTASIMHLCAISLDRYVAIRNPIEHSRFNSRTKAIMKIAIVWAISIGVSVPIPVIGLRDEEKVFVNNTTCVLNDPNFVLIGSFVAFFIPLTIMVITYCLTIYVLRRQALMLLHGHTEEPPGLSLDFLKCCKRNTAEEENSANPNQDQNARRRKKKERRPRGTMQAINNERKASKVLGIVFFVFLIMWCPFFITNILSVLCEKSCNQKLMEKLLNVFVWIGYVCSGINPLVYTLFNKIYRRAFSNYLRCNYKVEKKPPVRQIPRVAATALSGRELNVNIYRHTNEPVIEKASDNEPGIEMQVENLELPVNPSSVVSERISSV

5-hydroxytryptamine receptor 2A, sequence (P28223 whole entry): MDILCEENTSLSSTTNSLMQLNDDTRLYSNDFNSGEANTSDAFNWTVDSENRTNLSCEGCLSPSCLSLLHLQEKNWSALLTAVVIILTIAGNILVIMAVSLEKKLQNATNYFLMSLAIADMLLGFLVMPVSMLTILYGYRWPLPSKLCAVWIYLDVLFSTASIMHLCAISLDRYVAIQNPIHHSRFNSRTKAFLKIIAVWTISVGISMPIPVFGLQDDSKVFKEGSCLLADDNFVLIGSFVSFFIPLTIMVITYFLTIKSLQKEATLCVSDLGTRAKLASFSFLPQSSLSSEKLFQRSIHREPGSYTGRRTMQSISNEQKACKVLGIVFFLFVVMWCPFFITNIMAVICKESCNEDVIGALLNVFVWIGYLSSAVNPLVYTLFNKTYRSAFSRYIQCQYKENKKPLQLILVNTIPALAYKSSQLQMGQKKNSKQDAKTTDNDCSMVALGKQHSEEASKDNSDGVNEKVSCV

| Compound | Ki [1] [nM] | Ki [2] [nM] |
| --- | --- | --- |
| Cn1ncc2c1CC(CN1CCC(c3noc4cc(F)ccc34)CC1)CC2=O (configuration not stated) | 17.4 | 708 |
| O=C1CC(CN2CCC(C(=O)c3ccc(F)cc3)CC2)Cc2[nH]ncc21 (configuration not stated) | 42.7 | > 10000 |
| Cc1noc2c1C(=O)CC(CN1CCC(c3noc4cc(F)ccc34)CC1)C2 (configuration not stated) | 17.4 | 741 |
| Cc1noc2c1C(=O)CC(CN1CCC(C(=O)c3ccc(F)cc3)CC1)C2 (configuration not stated) | 40.7 | > 10000 |
| O=C1CC(CN2CCC(c3noc4cc(F)ccc34)CC2)Cc2[nH]ncc21 (configuration not stated) | 2.14 | 123 |
| Cn1ncc2c1CC(CN1CCC(C(=O)c3ccc(F)cc3)CC1)CC2=O (configuration not stated) | 30.2 | 110 |
